Assay results reported in patent publication US20260021159A1, “STABLE PEPTIDE COMPOSITIONS AND METHODS OF USE THEREOF FOR TREATMENT OF MODERATE/SEVERE DRY EYE-RELATED OCULAR SYMPTOMS” (TearSolutions, Inc., priority 2022, published 2026).
Entries after “also recorded” stand apart in the source; their conditions may differ.

Columns and labels:
Type in all cases: in vivo, human
[1] = tested on: subjects with ocular surface disease associated with Primary Sjögren's Syndrome; assay: Corneal fluorescein staining (CFS, NEI scale) in Lacripep clinical study NCT 03226444
Method: (§1) The primary objective of this study was to evaluate the safety and tolerability of 22 and 44 μM Lacripep™ ophthalmic solution versus placebo (vehicle) administered three times daily for 28 days in subjects with a history of ocular surface disease associated with Primary Sjögren's Syndrome, including subjects with mild dry eye symptoms. Additionally, many dry eye signs and symptoms were assessed.
(§2) This was a multi-center, randomized, placebo-controlled, double-masked, parallel-group study conducted at 35 sites in the United States, and approved by local institutional review boards. Written informed consent was obtained from all subjects after review of risks and benefits of participation. The study was conducted in accordance with the Health Insurance Portability and Accountability Act of 1996 and Declaration of Helsinki of 1996 and registered at ClinicalTrials.gov: NCT 03226444.
(§3) The study duration was 56 days, including a 14-day run-in period, a 28-day active treatment period, and 14-day follow-up period (wash-out) (see FIG. 2). Measurements were collected at five scheduled visits.
Screening and Eligibility: At Visit 1 (Screening) informed consent was obtained from subjects and eligibility was determined requiring documentation of Primary Sjögren's Syndrome per the American-European Consensus Group Sjögren's Syndrome Criteria. Subjects were at least 18 years of age with a history of dry eye-related symptoms and use of eye-wetting agents within the past 120 days. Major inclusion criteria at the screening and subsequent baseline visits included: • 1. CFS total score >4 and <15 in the National Eye Institute Industry Workshop (NEI) scale (Protocol Appendix 6) • 2. Symptom Severity score of ≥40 using the Symptom Assessment in Dry Eye (SANDE) questionnaire • 3. Anesthetized Schirmer test score […] • 4. LGCS total score ≥5 using the NEI scale
(§4) Randomization and Treatment: At Visit 2 (Baseline/Randomization) eligibility was confirmed. All criteria were met in the same study eye. […] Eligible subjects were randomly assigned to one of the three treatment groups: one of two Lacripep™ ophthalmic solution strengths (22 μM or 44 μM) or placebo (vehicle).
(§5) One drop of investigational product was administered three times a day (TID) to both eyes for 28 days. At Visit 3 (Week 2) and Visit 4 (Week 4) efficacy and safety evaluations were performed. Subjects who discontinued before Visit 4 underwent Visit 4 evaluations (Early Termination).
(§6) Efficacy: All efficacy assessments were performed in both eyes, and by the same person if possible. […] Lissamine green conjunctival staining (LGCS) was assessed in 6 regions on a 0 to 3 scale (total 0 to 18). All sites were trained and tested on NEI scoring methodology.
The primary efficacy measurement was mean change from Baseline to Day 28 in CFS total score (NEI/Industry Workshop 0-15 scale, 0-3 scale in each of 5 regions) in the study eye. The key secondary efficacy measurement was mean change from Baseline to Day 28 in Eye Dryness Score (VAS from 0 to 100 mm) from Individual Symptom Assessments.
The change from Baseline in CFS to Day 14 and to post treatment follow-up (Day 42) were additional secondary measurements. Other secondary measurements included changes from baseline to Day 14 and Day 28 in the LGCS scores, TFBUT, and Schirmer tests. Secondary symptom measurements included changes from baseline to Day 14 and Day 28 in the SANDE and each of the Individual Symptom Assessments. […]

[2] = tested on: subjects with ocular surface disease associated with Primary Sjögren's Syndrome; assay: Burning/Stinging individual symptom assessment (VAS) in Lacripep clinical study
Method: as §1, §2, §3, §4
One drop of investigational product was administered three times a day (TID) to both eyes for 28 days. […]
Tear film break-up time (TBUT) was measured in seconds. The Symptom Assessment in Dry Eye (SANDE) inventory version 1 and version 2 measured patient-rated symptom severity and frequency using a visual-analogue scale. The Individual Symptom Assessments (instantaneous and Reflective) measured patient-reported symptoms on a visual-analogue scale (VAS). […]
(§7) Post-Hoc Efficacy Analysis: Post-hoc, all primary and secondary endpoints were assessed for treatment effect controlling for baseline Eye Dryness Score (EDS) using analysis of covariance (ANCOVA). […] Subgroups were then evaluated according to baseline EDS.

[3] = tested on: subjects with ocular surface disease associated with Primary Sjögren's Syndrome; assay: Lissamine green conjunctival staining (LGCS, NEI scale) in Lacripep clinical study
Method: as §1, §2, §3, §4, §5, §6
The change from Baseline in CFS to Day 14 and to post treatment follow-up (Day 42) were additional secondary measurements. Other secondary measurements included changes from baseline to Day 14 and Day 28 in the LGCS scores, TFBUT, and Schirmer tests. Secondary symptom measurements included changes from baseline to Day 14 and Day 28 in the SANDE and each of the Individual Symptom Assessments.
as §7, with “(ANCOVA). All ANCOVA models were fit using the Proc Mixed procedure in SAS. Post-hoc analysis was also performed using all observed data in the ITT set, without imputation.” for “(ANCOVA).”

[4] = 22 μM TID, day 14, prespecified analysis

Ac-Lys-Gln-Phe-Ile-Glu-Asn-Gly-Ser-Glu-Phe-Ala-Gln-Lys-Leu-Leu-Lys-Lys-Phe-Ser-NH2 (Ac-KQFIENGSEFAQKLLKKFS-NH2) [Lacripep™, synthetic 19 amino acid peptide fragment of lacritin]
Improvement in total CFS score vs placebo ([1]; 22 μM TID, day 14, baseline EDS set, p=0.03): 1.2
Improvement from baseline in inferior region CFS score vs. placebo [1, 4]: statistically significant
Treatment effect on inferior CFS after washout ([1]; 22 μM, day 42 post-treatment follow-up, subset baseline EDS): falling off after washout
Difference in inferior region CFS score vs. placebo ([1]; 44 μM TID (higher dose group), subset baseline EDS≥60): Positive (though not statistically significant) differences; also recorded: positive but not significant effect
Primary endpoint of CFS score at day 28 ([1]; day 28, change from baseline in CFS total score vs placebo): not met
Improvement from baseline in Burning/Stinging symptom (reflective VAS rating) vs. placebo [2, 4]: statistically significant
Burning/Stinging symptom vs placebo at later time points ([2]; both dose groups (22 and 44 μM), day 28 and day 42, not statistically significant): trend better than the placebo group
Burning/Stinging symptom treatment effect ([2]; both dose groups, day 28, subset baseline EDS of ≥60): positive but not significant effect
Improvement in change from baseline LGCS total score vs. placebo ([3]; 22 μM TID, day 14, subset baseline EDS≥60, p=0.017): 1.5
Improvement in LGCS segment 5 vs. placebo ([3]; 22 μM TID, day 14, subset baseline EDS≥60, p=0.038): 0.4
Improvement in LGCS segment 1 vs. placebo ([3]; 22 μM TID, day 14, subset baseline EDS≥60, p=0.049): 0.4
Improvement in LGCS ([3]; prespecified secondary endpoint analysis): not statistically significant
